Assay results published in patent US10722520B2, “Heterocyclic compounds and their use in preventing or treating bacterial infections” (MUTABILIS, priority 2016, dated 2020).
pIC50: −log10 of the molar value. Where a name gives a salt, the structure may show the parent alone. Read-outs that look alike come from different tables or passages of the source.

Legend:
[1] = target: OXA-1 (Escherichia coli, UniProt P13661)
[2] = target: SHV-1 (Klebsiella pneumoniae, UniProt P0AD64)
[3] = target: OXA-48 (Klebsiella pneumoniae, UniProt Q6XEC0)
[4] = target: AmpC (PAE) (Pseudomonas aeruginosa, UniProt P24735); assay: biochemical
[5] = target: OXA-15 (Pseudomonas aeruginosa, UniProt Q51574); assay: biochemical
[6] = system: K. pneumoniae BAA-1898; assay: MIC of compound alone, broth microdilution; type: cell-based; conditions: Klebsiella pneumoniae, BAA1898; strain BAA-1898; compound alone; read-out: MIC compounds of the invention alone
Experimental: (§1) Log phase bacterial suspensions were adjusted to a final density of 5×10^5 cfu/mL in cation-adjusted Mueller-Hinton broth (Becton-Dickinson) and added to each well (98 μL). Microplates were incubated for 16-20 h at 35° C. in ambient air. The MIC of the compounds was defined as the lowest concentration of said compounds that prevented bacterial growth as read by visual inspection.

[7] = system: E. cloacae P99; assay: MIC of compound alone, broth microdilution; type: cell-based; conditions: Enterobacter cloacae; strain P99; compound alone; read-out: MIC compounds of the invention alone
Experimental: as §1

[8] = system: E. coli 190317; assay: MIC of compound alone, broth microdilution; type: cell-based; conditions: Escherichia coli; strain 190317; compound alone; read-out: MIC compounds of the invention alone
Experimental: as §1

[9] = system: K. pneumoniae 6299; assay: MIC of compound alone, broth microdilution; type: cell-based; conditions: Klebsiella pneumoniae; strain 6299; compound alone; read-out: MIC compounds of the invention alone
Experimental: as §1

[10] = system: P. aeruginosa CIP107051; assay: MIC of compound alone, broth microdilution; type: cell-based; conditions: Pseudomonas aeruginosa; strain CIP107051; compound alone; read-out: MIC compounds of the invention alone
Experimental: as §1

[11] = target: KPC-2 (Klebsiella pneumoniae, UniProt Q9F663)
[12] = target: CMY-37 (Citrobacter freundii, UniProt P05193); conditions: read-out: IC50 β-lactamase CMY-37
[13] = target: OXA-11 (Pseudomonas aeruginosa, UniProt Q06778)
[14] = target: TEM-1 (Escherichia coli, UniProt P62593)
[15] = target: CTX-M-15 (Escherichia coli, UniProt Q9EXV5)
[16] = target: AmpC (P99) (Enterobacter cloacae, UniProt P05364); assay: biochemical
[17] = class (C), nitrocefin 200 μM, 30-min pre-incubation, enzyme 0.2 nM

Structure (SMILES) | pIC50 [1] | pIC50 [2] | pIC50 [3] | pIC50 [4] | pIC50 [5] | MIC [6] [µg/mL] | MIC [7] [µg/mL] | MIC [8] [µg/mL] | MIC [9] [µg/mL] | MIC [10] [µg/mL] | pIC50 [11] | pIC50 [12, 17] | pIC50 [13] | pIC50 [14] | pIC50 [15] | pIC50 [16] | pIC50 [12]
NCCc1cnn(C2=CC3CN(C2)C(=O)N3OS(=O)(=O)O)c1 (stereo not drawn) [Example 41, [3-[4-(2-aminoethyl)pyrazol-1-yl]-7-oxo-1,6-diazabicyclo[3.2.1]oct-3-en-6-yl]hydrogen sulfate] | 6.12 | 8.35 | 8.05 | 7.06 | 7.40 | > 32 | 4 | 2 | > 32 | 32 | 7.24 | 7.68 | 6.74 | 9.24 | 9.04 | 7.44 | 
O=C1N2CC(n3cc(N4CCNCC4)cn3)=CC(C2)N1OS(=O)(=O)O (stereo not drawn) [Example 42, 2,2,2-trifluoroacetate [7-oxo-3-(4-piperazin-4-ium-1-ylpyrazol-1-yl)-1,6-diazabicyclo[3.2.1]oct-3-en-6-yl]hydrogen sulfate] | 5.80 | 8.82 | 8.04 | 6.74 | 7.47 | > 32 | 16 | 4 | > 32 | > 32 | 7.12 | 7.23 | 6.07 | 9.51 | 9.33 | 7.07 | 
[2H]c1nn(C2=CC3CN(C2)C(=O)N3OS(=O)(=O)[O-])c([2H])c1[2H].[Na+] (stereo not drawn) [Example 43, sodium [7-oxo-3-(3,4,5-trideuteriopyrazol-1-yl)-1,6-diazabicyclo[3.2.1]oct-3-en-6-yl]sulfate] | 7.01 | 8.44 | 8.22 | 8.03 | 6.85 | 8 | 4 | 1 | 8 | > 32 | 7.54 |  | 7.41 | 9.07 | 9.06 | 7.92 | 8.19
O=C1N2CC(n3ncnn3)=CC(C2)N1OS(=O)(=O)[O-].[Na+] (stereo not drawn) [Example 44, sodium [7-oxo-3-(tetrazol-2-yl)-1,6-diazabicyclo[3.2.1]oct-3-en-6-yl]sulfate] | 7.44 | 8.48 | 9.54 | 6.82 | 7.49 | 4 | 4 | 1 | 4 | > 32 | 8.14 |  | 7.70 | 9.32 | 9.07 | 7.89 | 7.59
NC(=O)Cc1ccn(C2=CC3CN(C2)C(=O)N3OS(=O)(=O)[O-])n1.[Na+] (stereo not drawn) [Example 45, sodium [3-[3-(2-amino-2-oxo-ethyl)pyrazol-1-yl]-7-oxo-1,6-diazabicyclo[3.2.1]oct-3-en-6-yl]sulfate] | 6.52 | 8.35 | 7.74 | 7.18 | 6.51 | 32 | 16 | 4 | > 32 | > 32 | 7.33 |  | 7.04 | 8.85 | 8.89 | 7.49 | 7.72
NCCONC(=O)c1ccn(C2=CC3CN(C2)C(=O)N3OS(=O)(=O)O)n1 (stereo not drawn) [Example 46, [3-[3-(2-aminoethoxycarbamoyl)pyrazol-1-yl]-7-oxo-1,6-diazabicyclo[3.2.1]oct-3-en-6-yl]hydrogen sulfate] | 6.85 | 8.40 | 8.41 | 6.80 | 6.77 | 16 | 16 | 2 | > 32 | > 32 | 7.96 | 7.80 | 7.31 | 9.05 | 9.15 | 7.60 | 
O=C(NOCCO)c1ccn(C2=CC3CN(C2)C(=O)N3OS(=O)(=O)[O-])n1.[Na+] (stereo not drawn) [Example 47, sodium [3-[3-(2-hydroxyethoxycarbamoyl)pyrazol-1-yl]-7-oxo-1,6-diazabicyclo[3.2.1]oct-3-en-6-yl]sulfate] | 6.70 | 8.04 | 8.17 | 6.32 | 6.80 | 32 | 32 | 8 | 32 | > 32 | 7.92 |  | 7.00 | 8.82 | 8.96 | 7.49 | 7.49
O=C(CO)Nc1ccn(C2=CC3CN(C2)C(=O)N3OS(=O)(=O)[O-])n1.[Na+] (stereo not drawn) [Example 50, sodium [3-[3-[(2-hydroxyacetyl)amino]pyrazol-1-yl]-7-oxo-1,6-diazabicyclo[3.2.1]oct-3-en-6-yl]sulfate] | 7.10 | 8.25 | 8.24 | 7.17 | 7.22 | 32 | 16 | 8 | 16 | > 32 | 7.92 |  | 7.96 | 8.92 | 9.23 | 7.92 | 8.23
O=C(CCO)Nc1ccn(C2=CC3CN(C2)C(=O)N3OS(=O)(=O)[O-])n1.[Na+] (stereo not drawn) [Example 51, sodium [3-[3-(3-hydroxypropanoylamino)pyrazol-1-yl]-7-oxo-1,6-diazabicyclo[3.2.1]oct-3-en-6-yl]sulfate] | 7.01 | 8.72 | 8.42 | 7.11 | 7.12 | 32 | 16 | 8 | 16 | > 32 | 7.74 |  | 7.92 | 9.52 | 9.55 | 7.77 | 8.20
NC(=O)CONC(=O)c1ccn(C2=CC3CN(C2)C(=O)N3OS(=O)(=O)[O-])n1.[Na+] (stereo not drawn) [Example 52, sodium [3-[3-[(2-amino-2-oxo-ethoxy)carbamoyl]pyrazol-1-yl]-7-oxo-1,6-diazabicyclo[3.2.1]oct-3-en-6-yl]sulfate] | 6.51 | 8.04 | 8.12 | 6.96 | 6.59 | 32 | 16 | 8 | 16 | > 32 | 7.96 |  | 6.89 | 8.72 | 9.17 | 7.80 | 8.06
CNCc1cn(C2=CC3CN(C2)C(=O)N3OS(=O)(=O)O)nn1 (stereo not drawn) [Example 60, [3-[4-(methylaminomethyl)triazol-1-yl]-7-oxo-1,6-diazabicyclo[3.2.1]oct-3-en-6-yl]hydrogen sulfate] | 6.89 | 8.70 | 8.92 | 6.48 | 8.09 | > 32 | 1 | 0.5 | > 32 | 32 | 7.85 | 7.17 | 6.89 | 9.46 | 9.14 | 7.57 | 
NCCONC(=O)c1cn(C2=CC3CN(C2)C(=O)N3OS(=O)(=O)O)nn1 (stereo not drawn) [Example 63, [3-[4-(2-aminoethoxycarbamoyl)triazol-1-yl]-7-oxo-1,6-diazabicyclo[3.2.1]oct-3-en-6-yl]hydrogen sulfate] | 7.28 | 8.16 | 9.01 | 6.28 | 7.39 | 32 | 16 | 8 | > 32 | > 32 | 8.33 | 7.26 | 6.96 | 9.07 | 9.28 | 7.72 | 
